{
  "source": "patent US20060251786A1",
  "about": "(priority 2005, published 2006)",
  "origin": "cited, not measured here",
  "conditions": "scale of 1-6; Gosselin et al., 5th ed, 1984",
  "data": [
    {"smiles": "O=c1ccc2ccccc2o1", "note": "[coumarin, 1,2-benzopyrone]", "values": [
      {"measurement": "toxicity level", "value": 4}
    ]},
    {"smiles": "CN1CCCC1c1cccnc1", "note": "(centres unmarked) [nicotine]", "values": [
      {"measurement": "toxicity level", "value": 6}
    ]}
  ]
}
